Tests used:
[1] = system: HeLa cell culture; assay: Phototoxicity (photodynamic activity), 3.5 h incubation, 3.3 joule/cm^2; format: cell-based; design: number of HELA cells (relative to the control): unit not given here; conditions: for number of HELA cells (relative to the control): incubation 3.5 hours
Experimental: To examine the photodynamic effects of a photosensitizer on a HeLa cell culture, the photosensitizer solution was added to the nutrient media at a final concentration of 0.1, 0.5, 1.0, 5.0 or 10 mcg/ml on day 3 after transplanting the cell culture into flasks. The flasks were wrapped with a light protecting cover, and incubated at 37° C. for 3.5 hours. Then, the cells were washed with Hank's solution, and exposed on ice by a laser medical device “LD 680-2000” (wavelength: 670-690 nm) at a dose of 3.3 joule/cm^2. After 20-24 hours, the available cell monolayer was dispersed using a 0.02%-Versene solution, and the number of tumor cells was calculated in Goriaev's chamber. For each point, 3 flasks were used.

[2] = system: Hela cells; assay: Phototoxicity, 24 h incubation, 1.5-15 joule/cm^2; format: cell-based; conditions: 670-690 nm
Experimental: In other experiment, the cells were incubated with photosensitizers at 37° C. for 24 hours, and irradiated by exposed on ice by a laser medical device “LD 680-2000” (wavelength of 670-690 nm) in a dose of 1.5-15 joule/cm^2.

[3] = Generation of singlet oxygen (luminescence at 1270 nm); format: physicochemical; conditions: air saturated buffer solution, room temperature
Experimental: Based on new Hamamatsu FEU with InP/InGaAsP semi-conductor photocathodes, a highly sensitive laser fluorometer for registration of luminescence signals in the range of 950-1400 nm with nanosecond time resolution was used.
Photoresponse of this process (φΔ) was measured by a relative method through integral intensity of singlet oxygen luminescence at a wavelength of 1270 nm. Excitation was conducted at a wavelength of 531 nm (pulse energy 4 microJ, frequency 1kHz). Tests were made in air saturated buffer solutions at room temperature. […] The φΔ in D2O was considered as 0.7.
To analyze kinetic curves of singlet oxygen luminescence, the following function was used:
wherein A is a coefficient depending on initial concentrations of interacted reagents, and k1 and k2 are constants of luminescence signal increase and extinction, respectively.
In the case when the deactivation rate constant Kτ of the photosensitizer triplet state exceeds the deactivation rate constant KΔ of the molecular oxygen […] state, the constant of increase k1 corresponds to Kτ, and constant of extinction k2 corresponds to KΔ. In the case of Kτ<KΔ, inversion of the kinetics of singlet oxygen luminescence occurs. In this case, k2=Kτ and k1=KΔ. […] Thus, based on kinetic data, the life times of singlet oxygen and triplet state can be calculated.

[4] = system: HeLa tumor cells; assay: Cytotoxicity (antiproliferative assay) in the absence of light exposure; format: cell-based; conditions: 24 hr incubation
Experimental: Cytotoxicity was analyzed, considering the intensity of proliferative processes in cells, photosensitizer concentration, and dose of optical power. For each point, 3 flasks with cell monolayer were used.
The monolayer culture of HeLa tumor cells was chosen and used as the cell.
The culture of HeLa tumor cells was grown in nutrient medium 199 or in nutrient medium containing hemohydrolyzate supplemented with 10% fetal bovine serum and […] of kanamycin.
On day 4 after the cell culture was inoculated in the flasks (100,000 cells per 2.0 ml of nutrient medium), the photosensitizer was added at a concentration of 1, 2.5, 5.0, 10.0, 20.0, or 30.0 mg/ml.
Flasks with light-protective cover (dark cytotoxicity) were incubated at 37.5° C. for 1 hour. The cells were washed with Hank's solution 4 times. 2.0 ml of fresh nutrient medium were added, and the cells were irradiated at the temperature of melting ice for 5, 10, 15 or 20 mins by the light flux of a “METALAZ” laser medical device (wavelength: 627.8 nm, 578.2 or 510.6 nm) or “LD 680-2000” (wavelength: 670-690 nm), depending on the wavelength of maximum spectral absorption of the studied photosensitizer, at a dose of 40 J/cm^2. After 20-24 hours, the number of tumor cell was counted in Goriaev's chamber.

[5] = Photophysical parameters (triplet state, intercombinative conversion); format: physicochemical
Experimental: Values of ? and ? were determined after substantially transferring of all molecules of the studied substance in excited triplet state. In such conditions, ΔD=C Δε^Tl, wherein C indicates the molar concentration of the substance in solution, and l indicates the length of the optical way. As the standard to estimate γ, Pd(II)-octa ethyl porphyrin (Pd(II)-OEP) was selected, for which the γ value in benzol was considered as equal to one.

[6] = Spectral and fluorescent parameters of chlorin e6 conjugate in different systems; format: physicochemical
Experimental: Pigment-protein complexes have been formed by adding to the solution of human serum albumin (HAS) a specific amount of photosensitizer dissolved in the same buffer. […] Similarly, the photosensitizer was included in detergent micelle (Triton X-100, C=10^−3M).
The electronic absorption spectra of the subject solution were recorded on Specord UV-Vis. The fluorescence spectra and value of degree of fluorescence polarization (P) were recorded on an automatic spectrofluorimeter (Institute of Physics). Life time of photosensitizer fluorescence (ts) was estimated using an impulse fluorometer operating in the mode of photons counting.
The main feature of the absorption spectrum is intensive (ε=4.8 10^4 M^−1cm^−1) Qx (0-0) band at 660 nm, which falls into the spectral window of the majority of biological tissues.
Complex formation of chlorin e6 conjugate, and HSA, liposomes or detergent micelles leads to bathochromic shift in the absorption and fluorescence spectra of pigment. However, an increase in fluorescence photoresponse (B) was observed, which correlates with the growth of life time (ts) without changing of the Kravec integral value.

Which “inhibition of proliferation of Hela cells” value ([1]; concentration of 5-10 mcg/ml, photoexposure) does the source give for “[γ-(6-aminohexyl)folic acid]-chlorin e6 [chlorin e6 conjugate]” here?
Its value is “fully inhibited”.

What about the “number of HELA cells (relative to the control)” value ([1]; photoexposure 3.3 joule/cm^2, conc. 0.1 mcg/ml) of the same substance?
The value was 65.1.

What about the “number of HELA cells (relative to the control)” value ([1]; photoexposure 3.3 joule/cm^2, conc. 0.5 mcg/ml) of the same substance?
Its value is 42.3.

What about the “number of HELA cells (relative to the control)” value ([1]; photoexposure 3.3 joule/cm^2, conc. 1.0 mcg/ml) of the same substance?
Its value is 12.6.

And the “number of HELA cells (relative to the control)” value ([1]; photoexposure 3.3 joule/cm^2, conc. 5.0 mcg/ml)?
The value was 0.1.

And the “phototoxicity / photosensitivity in survival test” value [2]?
The value was “improved the photosensitivity”.

What about the “τt (life time in the triplet state) from singlet oxygen luminescence kinetics” value [3] of the same substance?
Its value is 2.0±0.2 microsec.

What about the “τΔ (life time of singlet oxygen) from luminescence kinetics” value [3] of the same substance?
Its value is 3.6±0.2 microsec.

And the cell survival rates [4]?
Its cell survival rates is “about 90%”.

And the “τt (lifetime of excited triplet state, oxygen saturated)” value ([5]; H2O, pH 8.1)?
Its value is 2.5 μs.

And the “τt^0 (lifetime of excited triplet state, deoxygenated)” value ([5]; H2O, pH 8.1)?
The value was 170 μs.

And the “τt (lifetime of excited triplet state, oxygen saturated)” value ([5]; HSA, H2O, pH 8.1)?
Its value is 14.7 μs.

And the “τt^0 (lifetime of excited triplet state, deoxygenated)” value ([5]; HSA, H2O, pH 8.1)?
The value was 700 μs.

What about the “τt (lifetime of excited triplet state, oxygen saturated)” value ([5]; Liposomes, H2O, pH 8.1) of the same substance?
The value was 1.4 μs.

What about the “τt^0 (lifetime of excited triplet state, deoxygenated)” value ([5]; Liposomes, H2O, pH 8.1) of the same substance?
Its value is 70 μs.

What about the “γ (photoresponse of intercombinative conversion)” value ([5]; Liposomes, H2O, pH 8.1, standard Pd(II)-OEP) of the same substance?
Its value is 078.

And the “τt (lifetime of excited triplet state, oxygen saturated)” value ([5]; Pyridine)?
The value was 0.3 μs.

What about the “τt^0 (lifetime of excited triplet state, deoxygenated)” value ([5]; Pyridine) of the same substance?
The value was 140 μs.

And the “τt (lifetime of excited triplet state, oxygen saturated)” value ([5]; Triton X-100)?
Its value is 2.6 μs.

What about the “τt^0 (lifetime of excited triplet state, deoxygenated)” value ([5]; Triton X-100) of the same substance?
Its value is 230 μs.

And the “1^00fl” value ([6]; Dimethyl sulfoxide)?
The value was 672 nm.

What about the “absorption maximum wavelength (Qx 0-0 band)” value (shortened to “absorption maximum wavelength”) ([6]; Dimethyl sulfoxide) of the same substance?
The value was 661 Nm.

And the “1^00fl” value ([6]; H2O, pH 8.1)?
Its value is 664 nm.

What about the “absorption maximum wavelength” value ([6]; H2O, pH 8.1) of the same substance?
Its value is 657 Nm.

What about the “1^00fl” value ([6]; HSA, pH 8.1) of the same substance?
The value was 669 nm.

And the “absorption maximum wavelength” value ([6]; HSA, pH 8.1)?
Its value is 664 Nm.

What about the “1^00fl” value ([6]; Liposomes, pH 8.1) of the same substance?
Its value is 670 nm.

What about the “absorption maximum wavelength” value ([6]; Liposomes, pH 8.1) of the same substance?
The value was 665 Nm.

And the “1^00fl” value ([6]; Methanol)?
Its value is 667 nm.

And the “absorption maximum wavelength” value ([6]; Methanol)?
Its value is 662 Nm.

And the “1^00fl” value ([6]; Pyridine)?
Its value is 673 nm.

What about the “absorption maximum wavelength” value ([6]; Pyridine) of the same substance?
Its value is 666 Nm.

And the 1^00fl ([6]; Tetrahydrofuran)?
Its 1^00fl is 673 nm.

And the “absorption maximum wavelength” value ([6]; Tetrahydrofuran)?
Its value is 667 Nm.

And the “1^00fl” value ([6]; Triton X-100, pH 8.1)?
Its value is 670 nm.

And the “absorption maximum wavelength” value ([6]; Triton X-100, pH 8.1)?
The value was 665 Nm.
